Results from ChEMBL document CHEMBL6074666, “Design and Synthesis of Acyclic Boronic Acid Arginase Inhibitors” (J Med Chem, 2024).

Key:
[1] = molecular target: T1, Arginase-2, mitochondrial (Homo sapiens, UniProt P78540); assay: Inhibition of recombinant human Arg2 extracted from Escherichia coli incubated for 30 mins by Ellman's method
T1 sequence (P78540 whole entry): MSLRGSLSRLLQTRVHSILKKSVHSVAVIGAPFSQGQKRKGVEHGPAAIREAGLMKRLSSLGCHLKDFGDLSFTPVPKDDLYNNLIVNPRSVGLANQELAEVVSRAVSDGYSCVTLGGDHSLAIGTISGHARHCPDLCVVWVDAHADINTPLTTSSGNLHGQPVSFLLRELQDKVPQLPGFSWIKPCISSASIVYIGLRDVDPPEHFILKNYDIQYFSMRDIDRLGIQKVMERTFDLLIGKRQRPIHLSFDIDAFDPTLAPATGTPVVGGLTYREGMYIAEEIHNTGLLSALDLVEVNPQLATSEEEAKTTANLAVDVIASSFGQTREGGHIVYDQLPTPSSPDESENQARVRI

[2] = Oral availability in rat; assay type: ADME; conditions: in vivo
[3] = molecular target: T2, Arginase-1 (Homo sapiens, UniProt P05089); assay: Inhibition of recombinant human Arg1 extracted from Escherichia coli incubated for 30 mins by Ellman's method
T2 sequence (P05089 whole entry): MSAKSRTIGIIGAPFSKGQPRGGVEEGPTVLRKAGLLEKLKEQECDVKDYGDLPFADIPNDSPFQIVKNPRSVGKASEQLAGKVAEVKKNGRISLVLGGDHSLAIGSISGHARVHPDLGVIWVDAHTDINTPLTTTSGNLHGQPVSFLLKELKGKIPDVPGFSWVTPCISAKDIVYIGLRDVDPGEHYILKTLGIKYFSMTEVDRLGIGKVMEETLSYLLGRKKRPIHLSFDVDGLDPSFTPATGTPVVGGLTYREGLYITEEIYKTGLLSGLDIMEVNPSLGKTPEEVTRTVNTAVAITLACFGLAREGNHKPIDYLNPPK

[4] = Prodrug conversion in rat assessed as oral bioavailability of (2S,3S)-2-amino-3-(aminomethyl)-6-boronohexanoic acid metabolite; assay type: ADME, organism-based; conditions: in vivo
[5] = molecular target: T3, Arginase-1 (Homo sapiens) (UniProt P05089); assay: Potency index, ratio of ABH IC50 to test compound IC50 for recombinant human Arg1 extracted from Escherichia coli incubated for 30 mins by Ellman's method
T3 sequence (whole entry): T2 sequence (P05089 whole entry)

[6] = molecular target: T2, Arginase-1; assay: Inhibition of Arg1 (unknown origin)

SMILES	IC50 [1] [µM]	bioavailability [2] [%]	IC50 [3] [µM]	F [4] [%]	other results
CNC(=O)[C@@H](CCCB(O)O)[C@H](N)C(=O)O			> 100		
COC(=O)[C@H](CCCB(O)O)[C@H](N)C(=O)O	51.9		18.5		
CC(C)[C@H](N)C(=O)NC[C@H](CCCB(O)O)[C@H](N)C(=O)O		8.3	43	41	
C[C@H](N)C(=O)N[C@H](C(=O)O)[C@@H](CN)CCCB(O)O				16	
N[C@H](C(=O)O)[C@H](CF)CCCB(O)O	1.88		0.655		
N[C@@H](CCCCB(O)O)C(=O)O					IC50 [6]: 0.47 µM
CC[C@H](C)[C@H](N)C(=O)NC[C@H](CCCB(O)O)[C@H](N)C(=O)O		4.5	33	39	
N[C@H](C(=O)O)[C@H](CCCB(O)O)CN1CCCCC1	17.4				
CNC(=O)[C@H](CCCB(O)O)[C@H](N)C(=O)O	> 100		34.2		
CC(C)[C@H](N)C(=O)NC[C@@H](CCCB(O)O)[C@H](N)C(=O)O		29	145	56	
C[C@H](N)C(=O)N[C@H](C(=O)O)[C@H](CN)CCCB(O)O			68	66	
CC(C)(C)[C@H](N)C(=O)NC[C@H](CCCB(O)O)[C@H](N)C(=O)O		19	32		
COC(=O)[C@@H](CCCB(O)O)[C@H](N)C(=O)O	> 100		> 100		
CC(C)[C@H](N)C(=O)N[C@H](C(=O)O)[C@H](CN)CCCB(O)O				31	
N[C@H](C(=O)O)[C@@H](CF)CCCB(O)O	6.08		4.23		

More lines, main results first:

IC50 [1] [µM]	bioavailability [2] [%]	IC50 [3] [µM]	F [4] [%]	SMILES	other results
5.18				NC(=O)NC[C@@H](CCCB(O)O)[C@H](N)C(=O)O	
0.224	11			NC[C@H](CCCB(O)O)[C@H](N)C(=O)O	
	5.1	12	55	C[C@H](N)C(=O)NC[C@H](CCCB(O)O)[C@H](N)C(=O)O	Ratio IC50 [5]: 40
96.8		74		N[C@H](C(=O)O)[C@@H](N)CCCB(O)O	
	1.5	25	72	CC[C@H](N)C(=O)NC[C@H](CCCB(O)O)[C@H](N)C(=O)O	
18.7		10.9		COC[C@@H](CCCB(O)O)[C@H](N)C(=O)O	
0.534		0.22		N=C(N)NC[C@@H](CCCB(O)O)[C@H](N)C(=O)O	
0.625				NCC[C@@H](CCCB(O)O)[C@H](N)C(=O)O	
1.93				CNC[C@@H](CCCB(O)O)[C@H](N)C(=O)O	
	17			NC[C@@H](CCCB(O)O)[C@H](N)C(=O)O	
6.75		4.12		COC[C@H](CCCB(O)O)[C@H](N)C(=O)O	
	6.3	21	13	NCC(=O)NC[C@H](CCCB(O)O)[C@H](N)C(=O)O	
41.8		19.2		NC(=O)[C@H](CCCB(O)O)[C@H](N)C(=O)O	
> 100		> 100		NC(=O)[C@@H](CCCB(O)O)[C@H](N)C(=O)O	
	10	157		C[C@H](N)C(=O)NC[C@@H](CCCB(O)O)[C@H](N)C(=O)O	
